Measured values from patent publication US4740501A (priority 1985, dated 1988).
Like-named read-outs stand apart in the source and are kept apart here.

What was measured:
Type in all cases: cell-based
L1210S = test: cells; conditions: read-out: T.C.D.50
L1210DDP = test: cells
L1210 MTX = test: MTX and cisplatin cross-resistance test, 24 hour exposure

| Structure (SMILES) | IC50 (L1210S; parental L1210S) [µM] | resistance of L1210DDP compared to L1210S (L1210DDP) [fold] | IC50 (L1210DDP; read-out: T.C.D.50) [µM] | IC50 (L1210S) [µM] | resistance of L1210 MTX compared to L1210S (L1210 MTX) [times] | IC50 (L1210 MTX; Mus musculus, L1210 MTX, characterisation of resistant line, read-out: T.C.D.50) [µM] |
| --- | --- | --- | --- | --- | --- | --- |
| N.N.[Cl][Pt][Cl] [cisplatin, cis-diamminedichloroplatinum (II), reference compound] | 1.5 | 20 | 30 | – | – | – |
| CN(Cc1cnc2nc(N)nc(N)c2n1)c1ccc(C(=O)N[C@@H](CCC(=O)O)C(=O)O)cc1 [MTX, methotrexate, reference compound] | – | – | – | 0.005 | 100 | 0.5 |
